Laboratory results reported in US8765729B2, “Cancer therapy” (Aeolus Sciences, Inc., priority 2001, dated 2014).

Columns and labels:
[1] = SOD activity (cytochrome C method); assay type: biochemical
Text: FIGS. 1A-1H show the structures of certain generic and specific definitions of compounds suitable for use in the present invention. With reference to FIG. 1C, mimetics of the invention can be of Formula I or Formula II, or dimeric forms thereof, an example of a dimeric form being shown in FIG. 1D. With reference to FIG. 1H, the SOD activities of certain of the depicted compounds are shown in Table 1 (as measured by the cytochrome C method): […]

[2] = system: R3230 mammary adenocarcinoma cells in Z-chambers; experiment: Tumor development in Z-chambers; assay type: in vivo, Fisher-344 rats; details: 6 mg/kg i.p. 24 hours before implantation of 2.5 mil./ml cells
Procedure: FIG. 4. Animals were pretreated with different SOD mimetics (6 mg/kg i.p.) 24 hours before implantation of 2.5 mil./ml R3230 mammary adenocarcinoma cells in Z-chambers.
These chambers are constructed from customized plexi-glass rings with internal diameter of 10 mm and have a pore on the side. The two open surfaces are covered by nylon mesh (pore size 180 microns, Millipore, Mass.) and glued to the rings. Fibrinogen (Human fibrinogen, plasminogen depleted, CalBiochem) is prepared in DMEM, Gibco BRL) and a concentration of 4-5 mg/ml is utilized for the studies. Although the Fischer rats used in the study are immune competent, this purified batch of fibrinogen has been recognized to be very well conserved across species lines. It has already been shown that early angiogenic response to human fibrinogen is very similar to rat fibrinogen in fibrin gel chambers. The two different types of fibrinogen have also been tested in the Z-Chambers and no difference was found in angiogenic and healing response. Human fibrinogen was used.
The Fibrin Z-Chambers have fibrinogen solution poured inside the chamber through the pore and followed by 2 units of thrombin. […]
The Z-Chambers were harvested on day 1 or 12 post surgery. […] The depth of either the tumor tissue (tumor growth) or granulation tissue (wound healing) was measured with calipers on the 4×6 inch print. […]

[3] = system: oral mucositis induced by acute radiation; experiment: Oral mucositis induced by acute radiation in hamsters; assay type: in vivo
Procedure: Forty hamsters were given an acute radiation dose directed to their oral mucosa. Test materials will be applied by injection, or topically (three times per day) beginning the day before radiation and continuing until day 20. Mucositis were evaluated on alternate days beginning on day 6 (day of radiation=day 0) and continuing until the conclusion of the experiment on day 28.
Forty (40) hamsters were used. The hamsters were randomized into five (5) groups of eight (8) animals each. Each group was assigned a different treatment of 0.2 ml tid as follows:
Parameters measured included the mucositis score, weight change and survival. For the evaluation of mucositis, the animals were anesthetized with inhalation anesthetics ([…] or Halothane), and the left pouch everted. Mucositis was scored both clinically during the laboratory portion of the study and in a blinded manner (at the conclusion of the study). Clinical scoring was performed by visual comparison to a validated photographic scale, ranging from 0 for normal, to 5 for severe ulceration.
• 0 Pouch completely healthy. No erythema or vasodilation • 1 Light to […] erythema and vasodilation. No erosion of mucosa • 2 Severe erythema and vasodilation. Erosion of superficial aspects of mucosa leaving denuded areas. Decreased stippling of mucosa. • 3 Formation of off-white ulcers in one or more places. Ulcers may have a yellow/gray due to pseudomembrane. Cumulative size of ulcers should equal about ¼ of the pouch. Severe erythema and vasodilation. • 4 Cumulative seize of ulcers should equal about ½ of the pouch. Loss of pliability. Severe erythema and vasodilation. • 5 Virtually all of pouch is ulcerated. Loss of pliability (pouch can only partially be extracted from mouth) A score of 1-2 is considered to represent a mild stage of the disease, whereas a score 3-5 is considered to indicate moderate to severe mucositis. Results
Chi-square analysis of the total number of days the animals in each group spent with a score of three or more. This statistic is a measure of severity of ulceration, a clinically important outcome. Significant efficacy is indicated in red.

[4] = high dose IP (1 mg/ml tid), total days 192
[5] = high dose topical (1 mg/ml tid), total days 192
[6] = low dose IP (0.25 mg/ml tid), total days 192
[7] = low dose topical (0.25 mg/ml tid), total days 182

In the case of `CCn1cc[n+](CC)c1-c1c2nc(c(-c3n(CC)cc[n+]3CC)c3ccc([nH]3)c(-c3n(CC)cc[n+]3CC)c3nc(c(-c4n(CC)cc[n+]4CC)c4ccc1[nH]4)C=C3)C=C2.[Mn+3]` [Compound 10150, manganese(III)tetrakis(N-diethylimidazolium-2,5-yl)porphyrin], the SOD activity [1] is reported as 14,789 U/mg, the tumor development [2] is reported as “Significant (p<0.01) inhibition of tumor development” and the “Percent Days > 3” value ([3]; INC-01, 0.25 mg/ml IP, control 45.8, P 0.001) is reported as 18.8%. For the same compound, the “Percent Days > 3” value ([3]; INC-01, 0.25 mg/ml Topical, control 45.8, P 0.953) was 45.6%, the “Percent Days > 3” value ([3]; INC-01, 1 mg/ml IP, control 45.8, P 0.005) was 31.3% and the “Percent Days > 3” value ([3]; INC-01, 1 mg/ml Topical, control 45.8, P 0.148) was 38%. For the same compound, the “Percent Days > 3” value ([3]; INC-02, 0.25 mg/ml IP, control 43.3, P 0.004) was 28.6%, the “Percent Days > 3” value ([3]; INC-02, 1.5 mg/ml IP, control 43.3, P 0.002) was 27.6% and the “Percent Days > 3” value ([3]; INC-02, 1.5 mg/ml Topical, control 43.3, P 0.298) was 37.5%. The “Percent Days > 3” value ([3]; INC-02, 5 mg/ml Topical, control 43.3, P 0.002) was 27.6%, the “Percent Days > 3” value ([3]; INC-03, 1 mg/ml IP, control 33.3, P 0.113) was 38.1% and the “Percent Days > 3” value ([3]; INC-04, 0.25 mg/ml IP, control 43.9, P 0.485) was 47.3%. For the same compound, the “Percent Days > 3” value ([3]; INC-05, 0.25 mg/ml IP, control 68.8, P 0.001) was 42.1%, the “Percent Days > 3” value ([3]; INC-05, 1.5 mg/ml IP, control 68.8, P 0.001) was 33.3% and the “reduction in the percent of days with Mucositis Scores ≧3” value ([3]; IP, 0.2 ml of 0.25 mg/ml TID, 1.5 mg/kg/day) was 59%. For the same compound, the “Days < 3” value [3, 4] was 132, the “Days >= 3” value [3, 4] was 60 and the “% Days >= 3” value ([3]; high dose IP, control 45.8, P 0.005) was 31.3%. The “Days < 3” value [3, 5] was 119, the “Days >= 3” value [3, 5] was 73 and the “% Days >= 3” value ([3]; high dose topical, control 45.8, P 0.148) was 38.0%. The mucositis severity ([3]; high dose topical, not statistically significant) was “tended to reduce mucositis severity”, the “Days < 3” value [3, 6] was 156 and the “Days >= 3” value [3, 6] was 36. The “% Days >= 3” value ([3]; low dose IP, control 45.8, P <0.001) was 18.8%, the “Days < 3” value [3, 7] was 99 and the “Days >= 3” value [3, 7] was 83. For the same compound, the “% Days >= 3” value ([3]; low dose topical, control 45.8, P 0.953) was 45.6%, the “severity of mucositis associated with radiation therapy” value ([3]; most evident with IP administration) was “markedly reduces the severity of mucositis” and the “incidence of severe mucositis” value ([3]; topical dosing, both concentrations) was “not in either group treated by topical dosing”.
For “CuZn-SOD: dimeric copper- and zinc-containing enzyme found in the cytosol of all cells”, the SOD activity [1] was 2,200 U/mg.
